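Method: 48-hour compound exposure of cells in 96-well plates, five concentrations, linear interpolation of endpoints. The concentration for full growth arrest is given as TGI.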
How the values were obtained:
Assay in all cases: NCI-60 cell line screen, 48 h
[1] = system: CAKI-1 renal
[2] = system: HS 578T breast
[3] = system: K-562 leukemia
[4] = system: OVCAR-5 ovarian
[5] = system: RPMI-8226 leukemia
[6] = system: SF-539 CNS
[7] = system: SK-MEL-2 melanoma
[8] = system: SNB-75 CNS
[9] = system: TK-10 renal

Row | Compound | TGI [1] [µM] | TGI [2] [µM] | TGI [3] [µM] | TGI [4] [µM] | TGI [5] [µM] | TGI [6] [µM] | TGI [7] [µM] | TGI [8] [µM] | TGI [9] [µM]
1 | COc1cccc2c1[C@H](OC)[C@]13O[C@@]1(C2=O)[C@H](O)[C@H](C)[C@@](O)(C(=O)[C@@H]1O[C@H]1C)[C@@H]3O | 0.88 | 0.618 | > 100 | 2.05 | 0.411 | 0.975 | 0.384 | 0.544 | 10.7
2 | O=C1c2ccccc2C(=O)c2[nH]c(=O)c(/C=N/Nc3ccc([N+](=O)[O-])cc3)nc21 | > 75.2 | 21.1 | > 65.4 | > 76.5 | > 61.2 | 19.2 | 12.1 |  | 51.2
3 | O=c1cc2oc3ccc4ccccc4c3cc-2c(=O)[nH]1 | 28.8 | 58.4 | 82.1 | 32.4 | > 100 | 25 | 31.6 |  | 
4 | S=C(NNC1=NCCCCN1)Nc1ccccc1 | > 100 |  | > 100 | > 100 | > 100 | > 100 |  | > 100 | 
5 | CCCCNC(=O)C1=C(C)NC(C)=C(C(=O)NCCCC)C1 | > 100 |  |  | > 100 |  | > 100 | > 100 | > 100 | > 100
6 | Nc1nonc1-c1noc(-c2nonc2N)[n+]1[O-] | 51.6 | > 100 | > 100 | > 100 | > 100 |  | > 100 |  | > 100
7 | O=C(CN1CCOCC1)NC1=Nc2ncccc2C(=O)NN1 |  | > 10 | > 10 | > 10 | > 10 | > 10 | > 10 | > 10 | > 10
8 | COC(=O)C1=C(C(=O)OC)C2(/N=C(\Nc3ccccc3)c3ccccc3)N(c3ccc(OC)cc3)CC(c3ccccc3)N2O1 (stereo not drawn) | > 100 | > 100 | > 100 | > 100 |  | > 100 | > 100 | 96.7 | > 100
9 | C[C@@H]1O[C@@H]2OCC[C@@H]2C2=C1C(=O)c1ccccc1C2=O | 29.8 | > 100 | 32.7 | 4.3 | 30.9 | 22.3 | 25.7 | 41.9 | 34.1
10 | CCN(CC)CC1CCCCN1CC(=O)N1c2ccc(Br)cc2C(=O)Nc2cccnc21 (stereo not drawn) | > 100 | > 100 | > 100 | > 100 | > 100 | > 100 | > 100 | 59.4 | > 100
11 | O=C(/C=C/c1ccc(O)c(O)c1)Oc1ccccc1 | 32.5 | 49 | > 100 | > 96.3 | 45 | 88.5 | 44 | 44.2 | > 100
12 | c1csc(-c2cc(-c3ccsc3)c(-c3cccs3)s2)c1 | > 100 | > 100 | > 100 | > 100 |  | > 100 |  | > 100 | > 100
13 | O=c1oc2ccccc2c(O)c1C(c1ccc([N+](=O)[O-])cc1)c1c(O)c2ccccc2oc1=O | > 100 | > 100 |  |  |  |  | > 100 | > 100 | > 100
14 | CN(C)CCCNC(=O)c1cc(NC(=O)CCCn2c3ccccc3c3ccccc32)cn1C | > 100 |  | > 100 | > 100 | > 100 | > 100 | > 100 | > 100 | 82
15 | CCCCCCCCCCCCCC/C(=C/OCC[N+](C)(C)C)OC(C)=O (tested in a mixture with another compound) | 4.04 | 5.26 | 13.3 | 13.2 | 4.16 | 5.88 |  | 7.3 | 3.76
16 | Cc1ccc(-c2n[nH]c(CC#N)n2)cc1 | > 100 | > 100 | > 100 | > 100 |  | > 100 | > 100 | > 100 | > 100
17 | COC(=O)[C@@H]1C[C@H]2[C@H](c3ccccc3Br)[C@@H](OC(C)=O)[C@@H](OCc3ccccc3)ON2O1 | > 100 |  | > 100 | > 100 |  | > 100 | > 100 | > 100 | > 100
18 | O=C1CC(CC(O)C(O)CO)CC(=O)N1 (stereo not drawn) | > 100 | > 100 | > 100 |  | > 100 | > 100 |  |  | > 100
19 | O=[N+]([O-])/C(Cl)=C(\Sc1ccccc1)C(Cl)=C(Cl)Cl | 3.88 | 1.8 |  | 3.66 |  | 2.98 |  |  | 3.21
20 | CCOC(=O)C1C(=O)CC(C)(O)C(C(=O)OCC)C1c1ccc(O)c(OC)c1 (stereo not drawn) | > 100 |  | > 100 | > 100 |  |  | > 100 | > 100 | > 100
21 | COc1cc(C(CN)N(C)C)cc(OC)c1OC (stereo not drawn) | > 100 | > 100 | > 100 | > 100 |  | > 100 |  |  | > 100
22 | Cn1c2nc(=Nc3ccc(Cl)cc3)n3ccc4ccccc4c3c2c(=O)n1-c1ccccc1 | > 100 | > 100 | > 100 | > 100 | > 100 |  | > 100 | > 100 | > 100
23 | COC(=O)C1=C(O)C(C(=O)OC)[C@@]2(O)[C@@H](C(=O)OC)C(c3ccc(OC(=O)/C(=C/c4ccccc4)c4ccccc4)cc3)C[C@@H]1[C@@H]2C(=O)OC (stereo partly drawn) | > 100 | > 100 | > 100 | > 100 |  | 8.44 | 46.2 | 35.6 | 51.4
24 | O=C(Nc1ccccc1)N1CC(CN2CCN(c3ccccc3)CC2)OC1=O (stereo not drawn) | > 100 | > 100 | > 100 | > 100 | > 100 |  | > 100 |  | > 100
25 | O=C(CCNC(=O)OCc1ccccc1)OCCCNC(=O)OCc1ccccc1 |  | > 100 | > 100 | > 100 | > 100 | > 100 |  | > 100 | > 100
26 | CNC(=S)N/N=C(\C)c1ccc(OC)cc1O | > 100 | > 100 | > 100 | > 100 | > 100 | > 100 | > 100 | > 100 | 
27 | CCOC(=O)c1c(SCC#N)n(-c2ccccc2)c(=S)n(-c2ccccc2)c1=O | > 100 | > 100 | > 100 | > 100 | > 100 |  | > 100 | 90.3 | > 100
